The source of these data is patent US9376442B2, “Methylpyrrolopyrimidinecarboxamides” (Takeda GmbH, priority 2009, dated 2016).

A value given as a limit tells only on which side of the number the result lay.

For one test, the target named is T1, PDE4B1 (Homo sapiens, UniProt Q07343).
T1 construct: made in house; host or cells: SF21 insect cells (baculovirus; pCRBac vector), 1000 x g supernatant of homogenate
The experiment in a line: Inhibition of type 4 phosphodiesterase (PDE4) activity, modified SPA test with recombinant PDE4B1 expressed in SF21 insect cells. The class given is biochemical. The following applies: recombinant PDE4B1, 0.5 μM cAMP, read-out: PDE4B1 inhibitory values [measured as −log IC50 (mol/l)] (converted). An outline of the steps: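 Modified [3H]cAMP SPA using 1000×g supernatant of SF21 cells expressing recombinant human PDE4B1, in 20 mM Tris pH 7.4, 0.1 mg/ml BSA, 5 mM Mg2+, 0.5 μM cAMP. After 5 min preincubation at 37 °C, 15 min reaction, stopped with SPA beads plus IBMX; IC50 by non-linear regression.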

Another test concerns the target T2, PDE5A1 (Homo sapiens, UniProt O76074).
T2 construct: from tissue; host or cells: human platelets from fresh donor blood (10,000 x g supernatant of sonicated lysate)
The experiment in a line: Inhibition of type 5 phosphodiesterase (PDE5) activity, modified SPA test with human platelet lysate. The class given is biochemical. The following applies: 0.5 μM cGMP, read-out: PDE5A1 inhibitory values [measured as −log IC50 (mol/l)] (converted). In short, it runs like this: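 Scintillation proximity assay with [3H]cGMP tracer at 0.5 μM total cGMP, stopped after 15 min with beads containing IBMX. PDE3 and PDE2 activities suppressed with motapizone (1 μM) and a PDE2 inhibitor (10 nM). Human platelet supernatant served as the enzyme, with compound preincubated 5 min at 37° C; IC50 values from concentration-effect curves.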

T1 sequence (Q07343 whole entry): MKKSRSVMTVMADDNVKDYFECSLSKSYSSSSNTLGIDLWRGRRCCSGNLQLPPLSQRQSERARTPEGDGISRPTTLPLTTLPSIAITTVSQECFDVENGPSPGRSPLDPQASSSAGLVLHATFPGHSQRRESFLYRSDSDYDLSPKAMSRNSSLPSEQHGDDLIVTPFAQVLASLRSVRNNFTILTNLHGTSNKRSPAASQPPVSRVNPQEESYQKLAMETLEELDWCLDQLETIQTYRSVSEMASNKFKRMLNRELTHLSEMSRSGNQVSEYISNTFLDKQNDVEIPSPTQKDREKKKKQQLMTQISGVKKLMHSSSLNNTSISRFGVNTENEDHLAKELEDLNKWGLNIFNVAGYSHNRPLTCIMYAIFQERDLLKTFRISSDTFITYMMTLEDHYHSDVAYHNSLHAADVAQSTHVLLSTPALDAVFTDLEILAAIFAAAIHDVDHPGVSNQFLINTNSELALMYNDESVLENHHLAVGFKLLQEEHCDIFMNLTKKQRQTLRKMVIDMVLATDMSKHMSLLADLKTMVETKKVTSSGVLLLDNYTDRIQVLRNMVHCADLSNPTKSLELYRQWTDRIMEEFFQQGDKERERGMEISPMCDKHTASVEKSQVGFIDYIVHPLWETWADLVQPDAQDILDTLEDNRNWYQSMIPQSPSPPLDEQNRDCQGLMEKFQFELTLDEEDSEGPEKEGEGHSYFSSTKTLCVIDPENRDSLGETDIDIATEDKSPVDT

As for `COCC(=O)N[C@H]1CC[C@@H](NC(=O)c2c(C)[nH]c3c(-c4cc(C)ccc4OCC4CC4)ncnc23)CC1` [Example E89, 4-[2-(Cyclopropylmethoxy)-5-methylphenyl]-N-{cis-4-[(methoxyacetyl)amino]cyclohexyl}-6-methyl-5H-pyrrolo[3,2-d]pyrimidine-7-carboxamide], the IC50 was less than 100 nM at PDE4B1 and less than 1 nM on PDE5A1.
Taken in the same sequence, the figures for `CC(=O)N1CCC(NC(=O)c2c(C)[nH]c3c(-c4cc(C(F)(F)F)ccc4OCC4CC4)ncnc23)CC1` [Example E90, N-(1-Acetylpiperidin-4-yl)-4-[2-(cyclopropylmethoxy)-5-(trifluoromethyl)phenyl]-6-methyl-5H-pyrrolo[3,2-d]pyrimidine-7-carboxamide] were less than 100 nM and less than 1 nM.
As to `CCC(=O)N1CCC(NC(=O)c2c(C)[nH]c3c(-c4cc(C(F)(F)F)ccc4OCC4CC4)ncnc23)CC1` [Example E91, 4-[2-(Cyclopropylmethoxy)-5-(trifluoromethyl)phenyl]-6-methyl-N-(1-propanoylpiperidin-4-yl)-5H-pyrrolo[3,2-d]pyrimidine-7-carboxamide], the values for the IC50 on PDE4B1 and on PDE5A1 were less than 100 nM and less than 1 nM, respectively.
In the case of `COCC(=O)N1CCC(NC(=O)c2c(C)[nH]c3c(-c4cc(C(F)(F)F)ccc4OCC4CC4)ncnc23)CC1` [Example E92, 4-[2-(Cyclopropylmethoxy)-5-(trifluoromethyl)phenyl]-N-[1-(methoxyacetyl)piperidin-4-yl]-6-methyl-5H-pyrrolo[3,2-d]pyrimidine-7-carboxamide], the IC50 on PDE4B1 is less than 100 nM; on PDE5A1 it was less than 1 nM.
Regarding `CC(=O)N[C@H]1CC[C@H](NC(=O)c2c(C)[nH]c3c(-c4cc(C(F)(F)F)ccc4OCC4CC4)ncnc23)CC1` [Example E93, N-[trans-4-(acetylamino)cyclohexyl]-4-[2-(cyclopropylmethoxy)-5-(trifluoromethyl)phenyl]-6-methyl-5H-pyrrolo[3,2-d]pyrimidine-7-carboxamide], the IC50 was less than 100 nM on PDE4B1 and less than 1 nM on PDE5A1.
As for `CCC(=O)N[C@H]1CC[C@H](NC(=O)c2c(C)[nH]c3c(-c4cc(C(F)(F)F)ccc4OCC4CC4)ncnc23)CC1` [Example E94, 4-[2-(cyclopropylmethoxy)-5-(trifluoromethyl)phenyl]-6-methyl-N-[trans-4-(propanoylamino)cyclohexyl]-5H-pyrrolo[3,2-d]pyrimidine-7-carboxamide], the figures for the IC50 at PDE4B1 and on PDE5A1 were less than 100 nM and less than 1 nM, respectively.
On to `COCC(=O)N[C@H]1CC[C@H](NC(=O)c2c(C)[nH]c3c(-c4cc(C(F)(F)F)ccc4OCC4CC4)ncnc23)CC1` [Example E95, 4-[2-(Cyclopropylmethoxy)-5-(trifluoromethyl)phenyl]-N-{trans-4-[(methoxyacetyl)amino]cyclohexyl}-6-methyl-5H-pyrrolo[3,2-d]pyrimidine-7-carboxamide], for which the values for the IC50 at PDE4B1 and at PDE5A1 were less than 100 nM and less than 1 nM, respectively.
For `CC(=O)N[C@H]1CC[C@@H](NC(=O)c2c(C)[nH]c3c(-c4cc(C(F)(F)F)ccc4OCC4CC4)ncnc23)CC1` [Example E96, N-[cis-4-(acetylamino)cyclohexyl]-4-[2-(cyclopropylmethoxy)-5-(trifluoromethyl)phenyl]-6-methyl-5H-pyrrolo[3,2-d]pyrimidine-7-carboxamide], the results for the IC50 on PDE4B1 and at PDE5A1 were 100 to 1000 nM and less than 1 nM, respectively.
In the case of `CCC(=O)N[C@H]1CC[C@@H](NC(=O)c2c(C)[nH]c3c(-c4cc(C(F)(F)F)ccc4OCC4CC4)ncnc23)CC1` [Example E97, 4-[2-(Cyclopropylmethoxy)-5-(trifluoromethyl)phenyl]-6-methyl-N-[cis-4-(propanoylamino)cyclohexyl]-5H-pyrrolo[3,2-d]pyrimidine-7-carboxamide], the values for the IC50 on PDE4B1 and on PDE5A1 were less than 100 nM and less than 1 nM, respectively.
For `COCC(=O)N[C@H]1CC[C@@H](NC(=O)c2c(C)[nH]c3c(-c4cc(C(F)(F)F)ccc4OCC4CC4)ncnc23)CC1` [Example E98, 4-[2-(Cyclopropylmethoxy)-5-(trifluoromethyl)phenyl]-N-{cis-4-[(methoxyacetyl)amino]cyclohexyl}-6-methyl-5H-pyrrolo[3,2-d]pyrimidine-7-carboxamide], the IC50 was less than 100 nM at PDE4B1 and less than 1 nM at PDE5A1.
Take `CCc1ccc(OCC2CC2)c(-c2ncnc3c(C(=O)NC4CCN(C(C)=O)CC4)c(C)[nH]c23)c1` [Example E145, N-(1-Acetylpiperidin-4-yl)-4-[2-(cyclopropylmethoxy)-5-ethylphenyl]-6-methyl-5H-pyrrolo[3,2-d]pyrimidine-7-carboxamide]: the IC50 is 100 to 1000 nM at PDE4B1 and less than 1 nM on PDE5A1.
`CCC(=O)N1CCC(NC(=O)c2c(C)[nH]c3c(-c4cc(CC)ccc4OCC4CC4)ncnc23)CC1` [Example E146, 4-[2-(Cyclopropylmethoxy)-5-ethylphenyl]-6-methyl-N-(1-propanoylpiperidin-4-yl)-5H-pyrrolo[3,2-d]pyrimidine-7-carboxamide]: the IC50 was 100 to 1000 nM at PDE4B1 and less than 1 nM at PDE5A1.
In the case of `CCc1ccc(OCC2CC2)c(-c2ncnc3c(C(=O)NC4CCN(C(=O)COC)CC4)c(C)[nH]c23)c1` [Example E147, 4-[2-(Cyclopropylmethoxy)-5-ethylphenyl]-N-[1-(methoxyacetyl)piperidin-4-yl]-6-methyl-5H-pyrrolo[3,2-d]pyrimidine-7-carboxamide], the IC50 at PDE4B1 is 100 to 1000 nM; at PDE5A1 it was less than 1 nM.
`CCc1ccc(OCC2CC2)c(-c2ncnc3c(C(=O)N[C@H]4CC[C@H](NC(C)=O)CC4)c(C)[nH]c23)c1` [Example E148, N-[trans-4-(Acetylamino)cyclohexyl]-4-[2-(cyclopropylmethoxy)-5-ethylphenyl]-6-methyl-5H-pyrrolo[3,2-d]pyrimidine-7-carboxamide]: the results for the IC50 on PDE4B1 and at PDE5A1 were less than 100 nM and less than 1 nM, respectively.
Taken in the same sequence, the figures for `CCC(=O)N[C@H]1CC[C@H](NC(=O)c2c(C)[nH]c3c(-c4cc(CC)ccc4OCC4CC4)ncnc23)CC1` [Example E149, 4-[2-(Cyclopropylmethoxy)-5-ethylphenyl]-6-methyl-N-[trans-4-(propanoylamino)cyclohexyl]-5H-pyrrolo[3,2-d]pyrimidine-7-carboxamide] were less than 100 nM and less than 1 nM.
Take `CCc1ccc(OCC2CC2)c(-c2ncnc3c(C(=O)N[C@H]4CC[C@H](NC(=O)COC)CC4)c(C)[nH]c23)c1` [Example E150, 4-[2-(Cyclopropylmethoxy)-5-ethylphenyl]-N-{trans-4-[(methoxyacetyl)amino]cyclohexyl}-6-methyl-5H-pyrrolo[3,2-d]pyrimidine-7-carboxamide]: the IC50 at PDE4B1 was less than 100 nM; at PDE5A1, less than 1 nM.
With `CCc1ccc(OCC2CC2)c(-c2ncnc3c(C(=O)N[C@H]4CC[C@@H](NC(C)=O)CC4)c(C)[nH]c23)c1` [Example E151, N-[cis-4-(Acetylamino)cyclohexyl]-4-[2-(cyclopropylmethoxy)-5-ethylphenyl]-6-methyl-5H-pyrrolo[3,2-d]pyrimidine-7-carboxamide], the IC50 on PDE4B1 is 100 to 1000 nM; at PDE5A1 it was less than 1 nM.
`CCC(=O)N[C@H]1CC[C@@H](NC(=O)c2c(C)[nH]c3c(-c4cc(CC)ccc4OCC4CC4)ncnc23)CC1` [Example E152, 4-[2-(Cyclopropylmethoxy)-5-ethylphenyl]-6-methyl-N-[cis-4-(propanoylamino)cyclohexyl]-5H-pyrrolo[3,2-d]pyrimidine-7-carboxamide]: the IC50 at PDE4B1 was 100 to 1000 nM; at PDE5A1, less than 1 nM.
